Reference: patent publication EP1408048A1, “Vaccines of enhanced immunogenicity, and methods for preparing such vaccines” (INSTITUT NATIONAL DE LA SANTE ET DE LA RECHERCHE MEDICALE …, priority 2002, dated 2004)

Test system: TAP
Test: TAP competitive binding assay with radio-labeled reporter peptide R9L
Details: result in words; TAP affinity = inverse of the IC50; reporter peptide R9L at 300 nM
Description: TAP affinities were determined in a competitive binding assay. IC50 values for competitor test peptides were normalized with respect to the IC50 of reporter peptide […] (SEQ ID N° 2).
Determination of HLA-A2 and TAP affinities. […] Results are expressed as inverse normalized IC50 (1/IC50 of test peptide/ IC50 of cold reporter peptide).

TAP affinity: high
Sequence: RRYNASTEL [R9L]
